Test results taken from patent US20100279976A1, “USE OF ARTEMISININ AND ITS DERIVATIVES IN CANCER THERAPY” (SHANGHAI INSTITUTES FOR BIOLOGICAL SCIENCES, CAS, priority 2009, published 2010).

What was measured:
[1] = system: OVCAR-3 ovarian carcinoma cells; assay: MTT cell viability assay, OVCAR-3; assay type: cell-based; conditions: Homo sapiens, OVCAR-3, 48 hrs
Source text: (§1) Human ovarian IOSE144 (immortalized non-tumorigenic human ovarian surface epithelial cells) and ovarian carcinoma (A2780 and OVCAR-3) cells that may be obtained from the American Type Culture Collection (ATCC, Manassas, Va.) are gifts from Dr. Jing Fang (Institute for Nutritional Sciences, Shanghai, China). All cells may be cultured according to the ATCC instructions. The compounds (ARS, ART, ARM and DHA) may be dissolved in DMSO (<0.1%, final concentration).
(§2) The effects of ART derivatives on the viability of the aforementioned cells may be determined using the MTT assay. Briefly, 2,000 cells per well were plated in triplicate in 96-well plates. After a 24-h incubation, the cells may be treated with varying concentrations of ART derivatives (0, 1, 5, 10, 25, 50, and 100 μmol/L) for 48 h. The MTT assay may be performed according to the manufacture's instruction and the resultant formazan crystals may be dissolved in DMSO (100 μL). The absorbance may be then recorded at 540 nm. The effects of ART derivatives on cell viability may be assessed by comparing the percent cell viability of the treated cells with the vehicle (DMSO)-treated control cells, which may be arbitrarily assigned at 100% viability. The experiment may be repeated thrice under the same conditions.

[2] = system: IOSE144 immortalized non-tumorigenic ovarian surface epithelial cells; assay: MTT cell viability assay, IOSE144; assay type: cell-based; conditions: Homo sapiens, IOSE-144, IOSE144, 48 hrs
Source text: as §1, §2

[3] = system: HepG2 hepatoma cells (p53 wild-type); assay: MTT cell viability assay, HepG2; assay type: cell-based; conditions: Homo sapiens, 48 h
Method: as §2

[4] = system: A2780 ovarian carcinoma cells; assay: MTT cell viability assay, A2780; assay type: cell-based; conditions: Homo sapiens, A2780, 48 hrs
Source text: as §1, §2

[5] = system: four hepatoma cell lines (HepG2, Hep3B, Huh-7, BEL-7404); assay: MTT assay, mean over four hepatoma cell lines; assay type: cell-based; conditions: Homo sapiens, mean of HepG2, Hep3B, read-out: overall mean IC50 in the four hepatoma cell lines
Method: as §2

[6] = system: Hep3B hepatoma cells (p53 null); assay: MTT cell viability assay, Hep3B; assay type: cell-based; conditions: Homo sapiens, 48 h
Method: as §2

[7] = system: 7702 normal human liver cells; assay: MTT cell viability assay, normal liver cells; assay type: cell-based; conditions: Homo sapiens, 7702 cells, 48 h; for IC20: read-out: IC20 (concentration that reduces growth by 20%)
Method: as §2

[8] = system: Huh-7 hepatoma cells (p53 mutant); assay: MTT cell viability assay, Huh-7; assay type: cell-based; conditions: Homo sapiens, Huh-7 (p53 mutant), 48 h
Method: as §2

[9] = system: BEL-7404 hepatoma cells (p53 mutant); assay: MTT cell viability assay, BEL-7404; assay type: cell-based; conditions: Homo sapiens, BEL-7404 (p53 mutant), 48 h
Method: as §2

OVCAR-3 cells = assay: Annexin V-FITC apoptosis assay, OVCAR-3; assay type: cell-based, human; conditions: OVCAR-3, 24 hrs; DHA 1 μM, CBP 500 μM, alone or combined
Method: ART- and DHA-induced apoptosis alone or in combination with gemcitabine in HepG2 and Hep3B cells or in combination with carboplatin in ovarian cancer cells may be determined by flow cytometry using the Annexin V-FITC Apoptosis Detection kit following the manufacturer's instructions. […] The cells may then be harvested, washed in PBS, and incubated with Annexin V and propidium iodide for staining in binding buffer at room temperature for 10 min in the dark. The stained cells may be analyzed using the FACSAria instrument.

A2780 xenograft tumors = assay type: in vivo
Method: Four to six week old female athymic nude mice (BALB/c, nu/nu) may be purchased from Shanghai Experimental Animal Center (Shanghai, China). Animal studies are approved by the Institute for Nutritional Sciences. The tumor xenograft model may be established as follows. […] Aliquots of cells (˜5×10^6 cells/0.2 ml) may be injected subcutaneously into the left inguinal area of the mice. The tumor growth and body weight of the mice may be monitored every other day. Tumor mass may be determined. Mice bearing palpable tumors (˜70 mg) may be randomly divided into treatment and control groups n=5 mice/group). CBP may be dissolved in saline, and DHA may be dissolved in cremophor EL:ethanol:saline (5:5:90, v/v/v). DHA may be administered via i.p. injection at doses of 10 and 25 mg/kg/5 days/week for 3 weeks) alone or combined with CBP (at a single dose of 120 mg/kg, once on day 0). The control group receives saline only. Mice may be killed on day 18. Tumors may be carefully excised, trimmed of extraneous fat or connective tissue, and homogenized in RIPA buffer (100 mg tumor tissue/1 ml RIPA) and prepared for immunoblotting analysis as described above.

OVCAR-3 xenograft tumors = assay: OVCAR-3 xenograft model in nude mice; assay type: in vivo; conditions: CBP only, single dose 120 mg/kg on day 0
Method: Four to six week old female athymic nude mice (BALB/c, nu/nu) may be purchased from Shanghai Experimental Animal Center (Shanghai, China). Animal studies are approved by the Institute for Nutritional Sciences. The tumor xenograft model may be established as follows. Briefly, A2780 and OVCAR-3 cells may be harvested and re-suspended in serum-free RPMI 1640 medium containing 20% (v/v) Matrigel (BD Biosciences, Bedford, Mass., USA). Aliquots of cells (˜5×10^6 cells/0.2 ml) may be injected subcutaneously into the left inguinal area of the mice. The tumor growth and body weight of the mice may be monitored every other day. Tumor mass may be determined. Mice bearing palpable tumors (˜70 mg) may be randomly divided into treatment and control groups n=5 mice/group). CBP may be dissolved in saline, and DHA may be dissolved in cremophor EL:ethanol:saline (5:5:90, v/v/v). DHA may be administered via i.p. injection at doses of 10 and 25 mg/kg/5 days/week for 3 weeks) alone or combined with CBP (at a single dose of 120 mg/kg, once on day 0). The control group receives saline only. Mice may be killed on day 18. Tumors may be carefully excised, trimmed of extraneous fat or connective tissue, and homogenized in RIPA buffer (100 mg tumor tissue/1 ml RIPA) and prepared for immunoblotting analysis as described above.

HCC = conditions: gemcitabine monotherapy, HCC patients; cited from earlier work
HepG2 xenograft tumors = assay: HepG2 xenograft model in nude mice; assay type: in vivo; conditions: HepG2 xenograft, gemcitabine alone 80 mg/kg i.p. days 7, 11, 15
Method: Female athymic nude mice (nu/nu; 4-6 wk of age) may be obtained from Shanghai Slac Laboratory Animal Co. Ltd. All animals may be fed with commercial diet and water ad libitum. The human HCC xenograft models in mice may be as follows. Briefly, HepG2 and Hep3B cells may be re-suspended in serum-free DMEM with Matrigel basement membrane matrix at a 5:1 ratio. The cell suspension may then be injected (7×10^6 cells; total volume, 0.2 mL) into the left inguinal area of the BALB/c nude mice. The animals may be monitored for activity and physical condition everyday, and the determination of body weight and measurement of tumor mass may be done every 3 d. Tumor mass may be determined by caliper measurement in two perpendicular diameters of the implant and calculated using the formula ½a×b^2, where a stands for the long diameter and b is the short diameter. The animal use and care protocol is approved by the Institutional Review Board of the Institute for Nutritional Sciences, Chinese Academy of Sciences.
Nude mice bearing HepG2 and Hep3B xenografts, randomly divided into various treatment and control groups (five mice per group), may be treated orally with either ART or DHA suspended in 5% sesame oil+95% saline, at a dose of 50 or 100 mg/kg/d, or a combination of ART or DHA with gemcitabine or with saline (as controls). In the mice receiving combination therapy, 80 mg/kg gemcitabine, representing one fifth of the reported most tolerated dose in mice, may be administered i.p. on days 7, 11, and 15 to avoid possible side effects and to illustrate potential chemo-sensitization effects in this combination regimen.

| Compound | IC20 [1] | IC50 [1] | IC80 [1] | IC20 [2] | IC50 [2] | IC80 [2] | IC20 [3] | IC50 [3] | IC80 [3] | IC20 [4] | IC50 [4] | IC80 [4] | IC50 [5] | IC20 [6] | IC50 [6] | IC80 [6] | IC80 [7] | IC20 [7] | IC50 [7] | IC20 [8] | further results |
| --- | --- | --- | --- | --- | --- | --- | --- | --- | --- | --- | --- | --- | --- | --- | --- | --- | --- | --- | --- | --- | --- |
| CO[C@H]1O[C@@H]2O[C@@]3(C)CC[C@H]4[C@H](C)CC[C@@H]([C@H]1C)[C@@]24OO3 [ARM, artemether] | 2.08 µM | 38.8 µM | > 500 µM | 98 µM | > 500 µM | > 500 µM | 2.6 µM | 54.8 µM | > 500 µM | 2.08 µM | 53.9 µM | > 500 µM | 42.3 µM | 2.4 µM | 51.5 µM | > 500 µM | > 500 µM | 7.9 µM | 492 µM | 1.2 µM | IC50 [8]: 31.4 µM; IC80 [8]: > 500 µM; IC20 [9]: 2.4 µM; IC50 [9]: 31.8 µM; IC80 [9]: > 500 µM |
| C[C@H]1[C@H](OC(=O)CCC(=O)O)O[C@@H]2O[C@@]3(C)CC[C@H]4[C@H](C)CC[C@@H]1[C@@]24OO3 [ARS, artesunate] | 3.93 µM | 343 µM | > 500 µM | > 500 µM | > 500 µM | > 500 µM | 1.3 µM | 20.5 µM | 338 µM | 7.68 µM | > 500 µM | > 500 µM | 21 µM | 1.5 µM | 39.4 µM | > 500 µM | > 500 µM | 7.3 µM | > 500 µM | 0.6 µM | IC50 [8]: 9.22 µM; IC80 [8]: 146 µM; IC20 [9]: 1 µM; IC50 [9]: 15 µM; IC80 [9]: 215 µM |
| N.N.O=C([O-])C1(C(=O)[O-])CCC1.[Pt+2] [CBP, carboplatin] | – | – | – | – | – | – | – | – | – | – | – | – | – | – | – | – | – | – | – | – | rate of apoptosis (control regarded as 100%) (OVCAR-3 cells): 528%; tumor growth inhibition (A2780 xenograft tumors; A2780 xenograft, CBP only, single dose 120 mg/kg on day 0): 56%; host toxicity based on observation of body weight (A2780 xenograft tumors; mice bearing A2780 or OVCAR-3 xenografts): slight weight loss; tumor growth inhibition (OVCAR-3 xenograft tumors): 46% |
| Nc1ccn([C@@H]2O[C@H](CO)[C@@H](O)C2(F)F)c(=O)n1 [gemcitabine] | – | – | – | – | – | – | – | – | – | – | – | – | – | – | – | – | – | – | – | – | median survival time (HCC): up to 34 weeks; tumor growth inhibition (HepG2 xenograft tumors): 34.9% |
